Among the test systems are HOP-62; SF-268; DU-145; SR; HCC 2998; MDA-MB-435; Malme-3M; BT-549; EKVX; SK-MEL-28; UO-31; MDA-MB-231; 786-0; OVCAR-4; UACC-257; NCI-H23; CCRF-CEM; SK-OV-3; RPMI-8226; MOLT-4.
Holding throughout (assay): inhibition of tumour cell growth, NCI panel, 48 h

This note sets out measurements from ChEMBL document CHEMBL1201862, “PubChem BioAssay data set” (2004).

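Values below derive from 48-hour exposures of cells grown in 96-well plates, with endpoints linearly interpolated between the two concentrations bracketing the appropriate inhibition level. GI50: concentration for 50% inhibition of growth.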 Active and inactive are the calls of the source. No stated cut-off is given here; in the data, active = GI50 up to about 1.1 µM and inactive = higher. Where only a bound is given, the exact number is not on record here.

As for `Cn1c2c(c3ccccc31)CCN=C2C1CCCOC1=O` (centres undefined), the GI50 in the experiment on HOP-62, with SF-268, in the experiment on DU-145, with SR, in the experiment on HCC 2998 and with MDA-MB-435 was > 100 µM (inactive) throughout. Moreover, the GI50 with Malme-3M was > 100 µM (inactive); in the experiment with BT-549, 47 µM (inactive); with EKVX, 88.3 µM (inactive); with SK-MEL-28, > 100 µM (inactive); in the experiment with UO-31 it was 43.5 µM (inactive); in the experiment on MDA-MB-231, > 100 µM (inactive). Moreover, the GI50 with 786-0, with OVCAR-4 and in the experiment on UACC-257 was > 100 µM (inactive) each time.

For `COc1ccc2c(c1)[n+]([O-])c(C#N)c(N1CCN(c3ccc([N+](=O)[O-])cc3)CC1)[n+]2[O-]`, the GI50 in the experiment with HOP-62 is 4.24 µM (inactive); in the experiment on SF-268, 2.91 µM (inactive); in the experiment on DU-145, 8.22 µM (inactive); in the experiment on NCI-H23, 3.23 µM (inactive); with SR it was 0.41 µM (active); in the experiment with HCC 2998 it was > 100 µM (inactive). Also, the GI50 with MDA-MB-435 is 5.13 µM (inactive); with Malme-3M, 2.64 µM (inactive); in the experiment on BT-549, 3.69 µM (inactive); in the experiment with EKVX, 2.74 µM (inactive); in the experiment with SK-MEL-28, 16.3 µM (inactive); with UO-31 it was < 0.01 µM (active). The GI50 in the experiment with MDA-MB-231 is 5.31 µM (inactive); in the experiment with 786-0, 8.63 µM (inactive); in the experiment on OVCAR-4 it was 3.94 µM (inactive); in the experiment with UACC-257 it was 4.42 µM (inactive); in the experiment on CCRF-CEM, 1.92 µM (inactive); with SK-OV-3, 8.09 µM (inactive).

Turning to `COc1ccc2[nH]c3c(C)c4cnccc4c(C)c3c2c1`, the GI50 was 1.43 µM (inactive) with HOP-62; 2.75 µM (inactive) in the experiment on SF-268; 2.93 µM (inactive) with DU-145; 6.25 µM (inactive) with NCI-H23; 3.57 µM (inactive) with SR; 1.67 µM (inactive) with HCC 2998. In addition, the GI50 is 1.48 µM (inactive) in the experiment with MDA-MB-435; 1.45 µM (inactive) with Malme-3M; 7.48 µM (inactive) in the experiment on BT-549; 1.87 µM (inactive) with EKVX; 1.94 µM (inactive) with SK-MEL-28; 2.95 µM (inactive) in the experiment with RPMI-8226. Also, the GI50 in the experiment with MDA-MB-231 was 2.8 µM (inactive); in the experiment on MOLT-4, 0.571 µM (active); with 786-0, 0.424 µM (active); in the experiment with OVCAR-4, 1.94 µM (inactive); with UACC-257, 4.07 µM (inactive); with CCRF-CEM it was 2.07 µM (inactive). Besides, the GI50 with SK-OV-3 is > 10 µM (inactive).

With `Cc1n[nH]c(=O)n1-c1cccnc1`, the GI50 with HOP-62, with SF-268, in the experiment on DU-145, in the experiment with NCI-H23, in the experiment with SR and with HCC 2998 was > 100 µM (inactive) each time. In addition, the GI50 in the experiment on MDA-MB-435, with Malme-3M, in the experiment with BT-549, in the experiment on EKVX, with SK-MEL-28 and in the experiment on RPMI-8226 was > 100 µM (inactive) in each case. Moreover, the GI50 with UO-31, in the experiment with MDA-MB-231, with MOLT-4, in the experiment on 786-0, in the experiment on OVCAR-4 and with UACC-257 was > 100 µM (inactive) throughout. In the experiment with CCRF-CEM, the GI50 is > 100 µM (inactive).

As for `COc1ccc(CCNC(=O)CCc2ccccc2CO)cc1OC`, the GI50 in the experiment with HOP-62, with SF-268, in the experiment on DU-145, in the experiment on NCI-H23, in the experiment with SR and with HCC 2998 was > 100 µM (inactive) in each case. For the same molecule, the GI50 in the experiment on MDA-MB-435, in the experiment on BT-549, in the experiment on EKVX, with SK-MEL-28, in the experiment with RPMI-8226 and in the experiment on UO-31 was > 100 µM (inactive) each time. Further, the GI50 with MDA-MB-231, with MOLT-4, in the experiment with 786-0, with OVCAR-4, in the experiment with UACC-257 and with CCRF-CEM was > 100 µM (inactive) each time. For the same molecule, the GI50 in the experiment with SK-OV-3 was > 100 µM (inactive).

As to `CC(=O)O[C@H]1CC[C@@]2(C)C(=CC[C@@H]3[C@@H]2CC[C@]2(C)Nc4c(cnn4S(C)(=O)=O)C[C@@H]32)C1`, the GI50 in the experiment on HOP-62 was 89.9 µM (inactive); in the experiment on DU-145 it was 49.5 µM (inactive); with NCI-H23 it was 42.5 µM (inactive); in the experiment with SR, 40.4 µM (inactive); with HCC 2998 it was > 100 µM (inactive); in the experiment with MDA-MB-435, 46.8 µM (inactive). Further, the GI50 is > 100 µM (inactive) in the experiment with Malme-3M; 23.3 µM (inactive) in the experiment on BT-549; > 100 µM (inactive) with SK-MEL-28; 32.3 µM (inactive) with RPMI-8226; 76.7 µM (inactive) in the experiment with UO-31; > 100 µM (inactive) in the experiment on MDA-MB-231. For the same molecule, the results for the GI50 in the experiment with MOLT-4, in the experiment on CCRF-CEM and in the experiment with SK-OV-3 were 20.1 µM (inactive), 37.2 µM (inactive) and > 100 µM (inactive), respectively.

With `C[C@@H]1Nc2cc(NC(=O)OCCF)nc(N)c2N=C1c1ccccc1`, the GI50 is < 0.0001 µM (active) in the experiment with HOP-62; < 0.0001 µM (active) with SF-268; < 0.0001 µM (active) in the experiment with DU-145; < 0.0001 µM (active) in the experiment with NCI-H23; < 0.0001 µM (active) in the experiment with SR; < 0.01 µM (active) with HCC 2998. Besides, the GI50 in the experiment with MDA-MB-435 was < 0.0001 µM (active); with Malme-3M it was 0.111 µM (active); in the experiment on BT-549, 84.1 µM (inactive); in the experiment with EKVX, < 0.0001 µM (active); in the experiment on SK-MEL-28, 88.7 µM (inactive); in the experiment on RPMI-8226 it was < 0.0001 µM (active). Further, the GI50 in the experiment on UO-31 is 21.5 µM (inactive); with MDA-MB-231, < 0.0001 µM (active); with MOLT-4 it was < 0.0001 µM (active); with 786-0, < 0.0001 µM (active); with UACC-257, < 0.01 µM (active); in the experiment on CCRF-CEM, < 0.0001 µM (active).

Take `CCOC(=O)CC1c2ccc(O)cc2OC(=O)C1c1ccc(N)cc1` (centres undefined): the GI50 is 4.34 µM (inactive) with HOP-62; 98.4 µM (inactive) with SF-268; > 100 µM (inactive) with DU-145; > 100 µM (inactive) in the experiment on NCI-H23; > 100 µM (inactive) with SR; > 100 µM (inactive) in the experiment on HCC 2998. Moreover, the GI50 in the experiment with MDA-MB-435, with Malme-3M, in the experiment on BT-549, in the experiment on EKVX, in the experiment on SK-MEL-28 and with RPMI-8226 was > 100 µM (inactive) in each case. For the same molecule, the GI50 in the experiment with UO-31, in the experiment with MDA-MB-231, with MOLT-4, in the experiment on 786-0, in the experiment on UACC-257 and with CCRF-CEM was > 100 µM (inactive) each time. Besides, the GI50 in the experiment on SK-OV-3 is > 100 µM (inactive).

As to `N#CC(C#N)=C1/C(=C/C=C/C=C/C=C/c2ccc(N3CCCCC3)s2)S(=O)(=O)c2ccccc21`, the GI50 in the experiment on HOP-62 is 33.7 µM (inactive); in the experiment with DU-145, 55 µM (inactive); in the experiment with NCI-H23, > 100 µM (inactive); in the experiment with SR it was 50.5 µM (inactive); in the experiment with HCC 2998, > 100 µM (inactive); in the experiment on MDA-MB-435, > 100 µM (inactive). In addition, the GI50 is > 100 µM (inactive) in the experiment with BT-549; > 100 µM (inactive) in the experiment on EKVX; > 100 µM (inactive) with SK-MEL-28; 36.4 µM (inactive) in the experiment with RPMI-8226; > 100 µM (inactive) with MDA-MB-231; 14.9 µM (inactive) in the experiment on MOLT-4. The GI50 with 786-0 is 93.1 µM (inactive); in the experiment with OVCAR-4, > 100 µM (inactive); with UACC-257, > 100 µM (inactive); in the experiment on CCRF-CEM it was 71.6 µM (inactive); in the experiment with SK-OV-3 it was > 100 µM (inactive).

In the case of `O=c1cnn(C/C=C/CO)c(=O)[nH]1`, the GI50 in the experiment on HOP-62, in the experiment with SF-268, with DU-145, in the experiment with NCI-H23, with SR and in the experiment with HCC 2998 was > 100 µM (inactive) throughout. In addition, the GI50 with MDA-MB-435, with Malme-3M, in the experiment with BT-549, in the experiment with EKVX, in the experiment on SK-MEL-28 and in the experiment on RPMI-8226 was > 100 µM (inactive) each time. Further, the GI50 in the experiment on UO-31, in the experiment with MDA-MB-231, in the experiment on UACC-257 and in the experiment on CCRF-CEM was > 100 µM (inactive) each time.

On to `O=C(CCc1ccc(O)cc1)NCCc1cccc(OCc2ccccc2)c1`, for which the GI50 is 29.6 µM (inactive) with HOP-62; 26.5 µM (inactive) in the experiment on SF-268; 30.8 µM (inactive) in the experiment on DU-145; 24.4 µM (inactive) with NCI-H23; 15.4 µM (inactive) with SR; 24.4 µM (inactive) in the experiment with HCC 2998. The GI50 in the experiment with MDA-MB-435 is 18.1 µM (inactive); in the experiment with Malme-3M, 27.7 µM (inactive); in the experiment with BT-549 it was 16.7 µM (inactive); in the experiment with EKVX it was 31.5 µM (inactive); in the experiment with SK-MEL-28, 22.7 µM (inactive); in the experiment on UO-31 it was 12.7 µM (inactive). The GI50 is 29 µM (inactive) with MDA-MB-231; 14 µM (inactive) with MOLT-4; 40.4 µM (inactive) with 786-0; 31.6 µM (inactive) in the experiment on OVCAR-4; 17.6 µM (inactive) in the experiment with UACC-257; 2.96 µM (inactive) in the experiment with CCRF-CEM. In addition, the GI50 in the experiment with SK-OV-3 was 27.7 µM (inactive).
